Data published in patent US20230303493A1, “ANTIBACTERIAL ADJUVANTS AND APPLICATIONS THEREOF” (THE TRUSTEES OF PRINCETON UNIVERSITY, priority 2020, published 2023).
Like-named read-outs stand apart in the source and are kept apart here.

System: P. aeruginosa PA14
Assay: IC50 of compounds in conjunction with colistin relative to P. aeruginosa (growth, absorbance at 600 nm)
Format: cell-based
Details: Pseudomonas aeruginosa
Protocol: Various compounds of formula I in Example 1 above were tested to determine IC50 of the compounds in conjunction with colistin relative to P. aeruginosa. IC50 testing of the compounds was conducted to the following protocol. Overnight cultures of P. aeruginosa PA14 were back diluted into fresh LB to an OD600 of 2.5×10^−3. Using polypropylene 96 well plates (Corning 3879), the potential antibiotic adjuvant was assayed with a 3-fold dilution starting with a […]. The concentration of colistin was held constant at sublethal concentration ([…]), using a freshly prepared colistin stock and minimizing transfers of colistin-containing solutions. After 17 h of aerobic growth at 37° C., 300 rpm, the absorbance at 600 nm was recorded.

[1] = P. aeruginosa PA14 in LB, colistin held constant at sublethal concentration (0.25 to 0.375 pg/mL), 3-fold dilution starting with a 250 concentration, 17 h aerobic growth at 37° C., absorbance at 600 nm, read-out: IC50

Structure (SMILES) | IC50 [1] [µM] | IC50 (PA14, 17 h) [µM]
CC(=O)c1ccccc1OCCCCCC(=O)Nc1ccnc(C(F)(F)F)c1 [Compound S32, 6-(2-Acetylphenoxy)-N-(2-(trifluoromethyl)pyridin-4-yl)hexanamide] | 57 | –
O=C(CCCCCN1CCN(c2ccccc2)CC1)Nc1ccnc(C(F)(F)F)c1 [Compound S40, 6-(4-Phenylpiperazin-1-yl)-N-(2-(trifluoromethyl)pyridin-4-yl)hexanamide] | 50 | –
CC(C)(C)c1ccc(OCCCCCC(=O)Nc2ccnc(C(F)(F)F)c2)cc1 [Compound S27, 6-(4-(tert-Butyl)phenoxy)-N-(2-(trifluoromethyl)pyridin-4-yl)hexanamide] | 2.6 | –
O=C(CCCCCOc1ccc2ccccc2c1)Nc1ccnc(C(F)(F)F)c1 [Compound S38, 6-(Naphthalen-2-yloxy)-N-(2-(trifluoromethyl)pyridin-4-yl)hexanamide] | 2.6 | –
CSc1ccc(OCCCCCC(=O)Nc2ccnc(C(F)(F)F)c2)cc1 [Compound S17, 6-(4-(Methylthio)phenoxy)-N-(2-(trifluoromethyl)pyridin-4-yl)hexanamide] | 14 | –
C#Cc1ccc(OCCCCCC(=O)Nc2ccnc(C(F)(F)F)c2)cc1 [Compound S20, 6-(4-Ethynylphenoxy)-N-(2-(trifluoromethyl)pyridin-4-yl)hexanamide] | – | 15.5
CC(C)(C)c1cccc(OCCCCCC(=O)Nc2ccnc(C(F)(F)F)c2)c1 [Compound S28, 6-(3-(tert-Butyl)phenoxy)-N-(2-(trifluoromethyl)pyridin-4-yl)hexanamide] | 0.8 | –
O=C(CCCCCOc1ccc(C(=O)OCc2ccccc2)cc1)Nc1ccnc(C(F)(F)F)c1 [Compound S30, Benzyl 4-((6-oxo-6((2-(trifluoromethyl)pyridin-4-yl)amino)hexyl)oxy)benzoate] | 2.6 | –
O=C(CCCCCN1CCN(c2ccncc2)CC1)Nc1ccnc(C(F)(F)F)c1 [Compound S43, 6-(4-(Pyridin-4-yl)piperazin-1-yl)-N-(2-(trifluoromethyl)pyridin-4-yl)hexanamide] | 75 | –
O=C(CCCCCN1CCN(c2cccnc2)CC1)Nc1ccnc(C(F)(F)F)c1 [Compound S42, 6-(4-(Pyridin-3-yl)piperazin-1-yl)-N-(2-(trifluoromethyl)pyridin-4-yl)hexanamide] | 70 | –
O=C(CCCCCOc1cccc2ccccc12)Nc1ccnc(C(F)(F)F)c1 [Compound S39, 6-(Naphthalen-1-yloxy)-N-(2-(trifluoromethyl)pyridin-4-yl)hexanamide] | 15 | –
O=C(CCCCCN1CCN(c2ccccn2)CC1)Nc1ccnc(C(F)(F)F)c1 [Compound S41, 6-(4-(Pyridin-2-yl)piperazin-1-yl)-N-(2-(trifluoromethyl)pyridin-4-yl)hexanamide] | 95 | –
COC(=O)c1ccc(OCCCCCC(=O)Nc2ccnc(C(F)(F)F)c2)cc1 [Compound S34, Methyl 4-((6-oxo-6-((2-(trifluoromethyl)pyridin-4-yl)amino)hexyl)oxy)benzoate] | 88 | –
C#Cc1ccccc1OCCCCCC(=O)Nc1ccnc(C(F)(F)F)c1 [Compound S22, 6-(2-Ethynylphenoxy)-N-(2-(trifluoromethyl)pyridin-4-yl)hexanamide] | 15.5 | –
